Literature values, collected in publication PMC6021390, “A promiscuous cytochrome P450 aromatic O-demethylase for lignin bioconversion” (Nature Communications, 2018).

What was measured:
LigX = test system: LigX; set-up: method as in ref 37 (a number printed in a supplementary file, which may have a reference list of its own: not looked up in the article's list); conditions: 0.2 μM LigXa, 6 μM LigXc, 0.4 μM LigXd, 500 μM NADH, substrate 10-500 μM, FE22 buffer, pH 6.0, 30 °C; cited from earlier work
PODA [1] = test: Cited steady-state O-demethylation of cryptopine (0-500 uM) by 100 ug PODA with 500 uM alpha-ketoglutarate, 500 uM iron sulfate and 10 mM sodium ascorbate in 100 mM Tris, pH 7.4, 30 °C, air.; assay type: biochemical; conditions: cited from earlier work
PODA [2] = test system: PODA; set-up: method as in ref 36 (a number printed in a supplementary file, which may have a reference list of its own: not looked up in the article's list); conditions: 100 μg PODA, 500 μM α-KG, 500 μM iron sulfate, 10 mM sodium ascorbate, cryptopine 0-500 μM, pH 7.4, 30 °C; cited from earlier work

SMILES	kcat (LigX) [s⁻¹]	Km (PODA [1]) [µM]	kcat (PODA [2]) [s⁻¹]
COc1cc(C(=O)O)cc(-c2cc(C(=O)O)cc(OC)c2O)c1O [5,5’-dehydrodivanillate]	6.1 ± 0.2	–	–
COc1cc2c(cc1OC)C(=O)Cc1ccc3c(c1CN(C)CC2)OCO3 [cryptopine]	–	27	0.034
